Data from publication PMC4016139, “Inhibition of K^+ Transport through Na^+, K^+-ATPase by Capsazepine: Role of Membrane Span 10 of the α-Subunit in the Modulation of Ion Gating” (PLoS ONE, 2014).

System: T1, Na+,K+-ATPase of adult rat ventricular myocytes
T1 construct: gene Atp1a1; native pump in isolated adult male ventricular myocytes, whole-cell patch clamp; with Sodium/potassium-transporting ATPase subunit beta-1
Assay: whole-cell ruptured-patch pump current (K+-dependent Ip)
Format: cell-based
Settings: 10 min perfusion, 5 mM external K+, 140 mM NaCl, pH 7.2, 35 °C

Structure (SMILES): Oc1cc2c(cc1O)CN(C(=S)NCCc1ccc(Cl)cc1)CCC2 [Capsazepine]
- % inhibition at 30 μM: 85%
